Experimental data taken from US10392368B2, “Pyrazolo and triazolo bicyclic compounds as JAK kinase inhibitors” (THERAVANCE BIOPHARMA R&D IP, LLC, priority 2017, dated 2019).

Experiments:
JAK1 = target: T1, JAK1 (Homo sapiens, UniProt P23458); test: Biochemical JAK1 kinase assay (LanthaScreen)
T1 construct: GST; purchased Life Technologies
Procedure, shortened: (§1)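 Recombinant GST-tagged JAK enzymes with GFP-STAT1 peptide substrate in 50 mM HEPES pH 7.5, 10 mM MgCl2, 1 mM EGTA, 0.01% Brij-35; compounds pre-incubated 1 h, then ATP added, 1 h reaction at ambient temperature. TR-FRET (Tb-anti-pSTAT1 pTyr701, 520/495 nm) after EDTA stop; IC50 by 4-parameter fit, converted to pKi via Cheng-Prusoff.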

JAK2 = target: T2, JAK2 (Homo sapiens, UniProt O60674); test: Biochemical JAK2 kinase assay (LanthaScreen)
T2 construct: GST; purchased Life Technologies
Procedure, shortened: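 pKi values derive from pIC50 via Cheng-Prusoff, with IC50 from a 4-parameter fit of percent-inhibition TR-FRET data using Tb-anti-pSTAT1 (pTyr701) detection. Compound, GST-JAK2 and GFP-STAT1 substrate were pre-incubated 1 h, then ATP started a 1 h ambient reaction (HEPES pH 7.5, 10 mM MgCl2, 1% DMSO).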

[1] = tested on: IL-2 stimulated pSTAT5 in Tall-1 T cells; test: Cellular JAK3 potency assay: inhibition of IL-2 stimulated pSTAT5 in Tall-1 T cells; format: cell-based, human; conditions: IL-2 stimulated pSTAT5, Tall-1 T cells
Procedure, shortened: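 Inhibition of IL-2-induced pSTAT5 was quantified by AlphaLisa in Tall-1 cell lysates. Compound exposure lasted 1 h before 30 min stimulation with 300 ng/ml IL-2 final.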

Tyk2 = target: T3, Tyk2 (Homo sapiens, UniProt P29597); test: Biochemical Tyk2 kinase assay (LanthaScreen)
T3 construct: GST; purchased Life Technologies
Procedure, shortened: as §1

JAK3 = target: T4, JAK3 (Homo sapiens, UniProt P52333); test: Biochemical JAK3 kinase assay (LanthaScreen); parameters: GST; purchased Life Technologies; conditions: for JAK3 (pKi)-JAK1 (pKi): selectivity JAK3 over JAK1, difference of pKi
T4 sequence (P52333 1-1124): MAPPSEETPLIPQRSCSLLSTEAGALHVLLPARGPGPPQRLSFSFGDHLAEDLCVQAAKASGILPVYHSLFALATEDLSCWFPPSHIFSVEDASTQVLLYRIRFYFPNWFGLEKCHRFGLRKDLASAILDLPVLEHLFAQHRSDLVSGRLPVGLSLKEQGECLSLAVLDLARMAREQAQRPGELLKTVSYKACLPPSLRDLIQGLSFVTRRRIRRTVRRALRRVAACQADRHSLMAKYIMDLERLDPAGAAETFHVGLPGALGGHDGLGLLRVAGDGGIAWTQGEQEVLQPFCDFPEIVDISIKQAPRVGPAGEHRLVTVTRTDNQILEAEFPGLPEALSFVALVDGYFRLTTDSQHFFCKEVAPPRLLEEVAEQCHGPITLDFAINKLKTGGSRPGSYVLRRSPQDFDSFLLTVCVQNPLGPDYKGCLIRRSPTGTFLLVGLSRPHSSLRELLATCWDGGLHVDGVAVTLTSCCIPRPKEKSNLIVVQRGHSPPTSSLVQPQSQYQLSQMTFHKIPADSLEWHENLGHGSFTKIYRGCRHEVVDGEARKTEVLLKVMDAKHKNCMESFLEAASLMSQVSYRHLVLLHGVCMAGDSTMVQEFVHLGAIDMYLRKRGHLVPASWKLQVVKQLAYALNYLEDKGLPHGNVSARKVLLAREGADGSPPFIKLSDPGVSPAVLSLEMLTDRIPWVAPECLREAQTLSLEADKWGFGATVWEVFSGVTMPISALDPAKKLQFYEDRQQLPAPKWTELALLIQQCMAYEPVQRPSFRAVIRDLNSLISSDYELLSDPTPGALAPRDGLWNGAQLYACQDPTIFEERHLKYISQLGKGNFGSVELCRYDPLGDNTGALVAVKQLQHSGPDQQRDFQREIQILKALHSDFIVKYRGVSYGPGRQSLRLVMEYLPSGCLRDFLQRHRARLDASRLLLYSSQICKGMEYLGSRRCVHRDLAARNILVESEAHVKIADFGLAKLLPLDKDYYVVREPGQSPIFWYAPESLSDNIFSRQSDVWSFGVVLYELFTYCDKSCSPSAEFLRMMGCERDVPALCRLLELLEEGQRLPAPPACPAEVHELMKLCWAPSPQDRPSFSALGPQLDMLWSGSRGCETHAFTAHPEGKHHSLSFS
Procedure, shortened: as §1

T3 sequence (P29597 whole entry): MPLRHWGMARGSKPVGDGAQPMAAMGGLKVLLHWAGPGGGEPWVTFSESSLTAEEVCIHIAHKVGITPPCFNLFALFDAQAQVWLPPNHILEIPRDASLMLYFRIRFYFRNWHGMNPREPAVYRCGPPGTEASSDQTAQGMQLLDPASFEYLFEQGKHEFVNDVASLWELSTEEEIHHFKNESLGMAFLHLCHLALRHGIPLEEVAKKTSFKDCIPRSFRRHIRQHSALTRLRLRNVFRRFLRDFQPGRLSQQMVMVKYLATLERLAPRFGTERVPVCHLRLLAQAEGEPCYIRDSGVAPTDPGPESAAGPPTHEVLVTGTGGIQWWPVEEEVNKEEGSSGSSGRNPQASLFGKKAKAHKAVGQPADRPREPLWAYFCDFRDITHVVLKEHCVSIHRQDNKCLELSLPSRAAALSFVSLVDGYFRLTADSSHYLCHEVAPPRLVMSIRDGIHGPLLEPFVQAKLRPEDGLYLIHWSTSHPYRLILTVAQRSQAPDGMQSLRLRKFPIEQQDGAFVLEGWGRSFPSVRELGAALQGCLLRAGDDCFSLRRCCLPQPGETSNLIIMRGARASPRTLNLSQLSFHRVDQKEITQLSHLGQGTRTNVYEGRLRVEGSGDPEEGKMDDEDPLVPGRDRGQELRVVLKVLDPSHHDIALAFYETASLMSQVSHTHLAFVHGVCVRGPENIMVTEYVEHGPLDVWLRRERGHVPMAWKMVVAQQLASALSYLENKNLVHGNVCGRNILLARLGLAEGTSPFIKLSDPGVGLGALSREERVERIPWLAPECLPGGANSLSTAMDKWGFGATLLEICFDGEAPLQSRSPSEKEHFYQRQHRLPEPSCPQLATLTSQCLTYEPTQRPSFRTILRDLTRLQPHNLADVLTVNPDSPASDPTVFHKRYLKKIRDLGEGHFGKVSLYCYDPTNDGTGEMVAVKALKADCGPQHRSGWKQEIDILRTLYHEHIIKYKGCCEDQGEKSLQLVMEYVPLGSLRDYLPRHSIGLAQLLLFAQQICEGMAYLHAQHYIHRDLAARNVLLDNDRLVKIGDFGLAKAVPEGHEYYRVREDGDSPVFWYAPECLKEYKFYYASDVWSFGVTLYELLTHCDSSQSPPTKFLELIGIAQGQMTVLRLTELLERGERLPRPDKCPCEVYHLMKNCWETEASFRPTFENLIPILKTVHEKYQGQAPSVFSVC
T2 sequence (O60674 whole entry): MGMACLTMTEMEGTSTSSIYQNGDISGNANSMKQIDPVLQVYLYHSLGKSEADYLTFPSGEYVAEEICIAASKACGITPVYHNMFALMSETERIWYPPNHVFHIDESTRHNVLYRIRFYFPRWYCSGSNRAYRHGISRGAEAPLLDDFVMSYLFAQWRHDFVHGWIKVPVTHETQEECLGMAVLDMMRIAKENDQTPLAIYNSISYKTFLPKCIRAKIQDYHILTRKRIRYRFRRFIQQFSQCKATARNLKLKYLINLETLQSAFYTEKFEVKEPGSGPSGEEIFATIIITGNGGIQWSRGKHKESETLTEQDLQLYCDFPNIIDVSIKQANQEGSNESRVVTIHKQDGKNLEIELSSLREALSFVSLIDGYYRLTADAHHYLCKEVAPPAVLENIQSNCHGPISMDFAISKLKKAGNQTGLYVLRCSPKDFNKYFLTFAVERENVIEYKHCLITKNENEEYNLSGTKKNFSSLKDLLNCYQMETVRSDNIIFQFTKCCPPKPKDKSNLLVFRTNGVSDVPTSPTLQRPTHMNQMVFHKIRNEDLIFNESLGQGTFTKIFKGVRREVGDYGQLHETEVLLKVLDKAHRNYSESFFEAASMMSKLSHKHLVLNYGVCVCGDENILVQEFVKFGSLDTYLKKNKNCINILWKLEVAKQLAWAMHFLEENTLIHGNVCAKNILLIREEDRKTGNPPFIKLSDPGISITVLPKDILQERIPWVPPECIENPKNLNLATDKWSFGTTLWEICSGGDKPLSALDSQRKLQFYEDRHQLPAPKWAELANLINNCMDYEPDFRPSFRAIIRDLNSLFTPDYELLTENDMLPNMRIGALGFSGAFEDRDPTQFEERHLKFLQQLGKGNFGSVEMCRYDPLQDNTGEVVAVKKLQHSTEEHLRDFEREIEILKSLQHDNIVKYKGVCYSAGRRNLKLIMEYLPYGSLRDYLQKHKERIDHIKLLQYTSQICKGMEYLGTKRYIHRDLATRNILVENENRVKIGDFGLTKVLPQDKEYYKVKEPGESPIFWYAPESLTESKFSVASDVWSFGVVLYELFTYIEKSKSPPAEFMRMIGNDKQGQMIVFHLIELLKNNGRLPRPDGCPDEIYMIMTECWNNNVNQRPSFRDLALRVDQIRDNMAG
T1 sequence (P23458 whole entry): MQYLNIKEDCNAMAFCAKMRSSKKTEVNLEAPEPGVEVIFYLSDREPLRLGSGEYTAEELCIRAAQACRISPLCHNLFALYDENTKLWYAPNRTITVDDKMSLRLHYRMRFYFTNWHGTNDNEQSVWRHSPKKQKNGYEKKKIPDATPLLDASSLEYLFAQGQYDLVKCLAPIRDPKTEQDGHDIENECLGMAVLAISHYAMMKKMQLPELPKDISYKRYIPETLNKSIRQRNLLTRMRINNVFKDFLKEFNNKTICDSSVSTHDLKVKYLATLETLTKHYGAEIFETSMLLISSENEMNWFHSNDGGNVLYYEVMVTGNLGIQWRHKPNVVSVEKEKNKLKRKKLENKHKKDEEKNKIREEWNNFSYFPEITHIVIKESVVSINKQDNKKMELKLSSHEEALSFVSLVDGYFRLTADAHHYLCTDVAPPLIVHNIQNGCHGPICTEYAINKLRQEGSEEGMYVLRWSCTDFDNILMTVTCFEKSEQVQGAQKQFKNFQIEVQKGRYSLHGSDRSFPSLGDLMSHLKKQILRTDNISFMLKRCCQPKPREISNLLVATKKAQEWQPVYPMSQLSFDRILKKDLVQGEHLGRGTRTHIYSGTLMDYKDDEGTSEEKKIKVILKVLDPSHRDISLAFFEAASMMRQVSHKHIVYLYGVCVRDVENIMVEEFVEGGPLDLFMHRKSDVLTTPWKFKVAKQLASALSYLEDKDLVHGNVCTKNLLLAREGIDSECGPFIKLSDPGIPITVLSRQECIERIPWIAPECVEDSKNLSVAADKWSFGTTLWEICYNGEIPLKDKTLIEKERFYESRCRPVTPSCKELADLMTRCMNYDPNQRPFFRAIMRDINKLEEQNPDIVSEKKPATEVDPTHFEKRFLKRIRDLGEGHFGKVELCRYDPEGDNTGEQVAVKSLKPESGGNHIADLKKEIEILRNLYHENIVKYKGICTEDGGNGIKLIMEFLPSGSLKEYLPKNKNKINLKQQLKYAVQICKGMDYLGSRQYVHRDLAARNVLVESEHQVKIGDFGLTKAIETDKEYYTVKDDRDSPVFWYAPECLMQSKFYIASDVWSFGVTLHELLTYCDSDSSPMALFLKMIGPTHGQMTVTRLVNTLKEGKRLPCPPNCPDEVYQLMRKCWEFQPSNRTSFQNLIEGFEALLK

SMILES	JAK 1 (pKi) (JAK1)	JAK 2 (pKi) (JAK2)	Tall-1 (pIC50) [1]	Tyk 2 (pKi) (Tyk2)	JAK 3 (pKi) (JAK3)	JAK3 (pKi)-JAK1 (pKi) (JAK3)
CN(C)C/C=C/C(=O)N1CC(CSc2cc(-c3ccc(O)c(Cl)c3)cc3[nH]ncc23)C1 [Compound 13-6]	E (a pKi value of 7 or below (Ki of 100 nM or above))	E (a pKi value of 7 or below (Ki of 100 nM or above))	A (a pIC50 value≥7.5 (IC50≤32 nM))	E (a pKi value of 7 or below (Ki of 100 nM or above))	A (a pKi value≥10 (Ki≤0.1 nM))	A (a value of 3 or above)
C=CC(=O)N1CC(CSc2cc(-c3ccc(O)c(F)c3)cc3[nH]ncc23)C1 [Compound 13-7]	E (a pKi value of 7 or below (Ki of 100 nM or above))	D (a pKi value between 7 and 8 (Ki between 100 nM and 10 nM))	B (a pIC50 value between 6.7 (included) and 7.5 (IC50 between 200 nM and 32 nM))	E (a pKi value of 7 or below (Ki of 100 nM or above))	A (a pKi value≥10 (Ki≤0.1 nM))	A (a value of 3 or above)
C=CC(=O)N1CC(CSc2cc(-c3ccc(O)c(Cl)c3)cc3[nH]ncc23)C1 [Compound 13-8]	E (a pKi value of 7 or below (Ki of 100 nM or above))	E (a pKi value of 7 or below (Ki of 100 nM or above))	A (a pIC50 value≥7.5 (IC50≤32 nM))	E (a pKi value of 7 or below (Ki of 100 nM or above))	B (a pKi value between 9 and 10 (Ki between 1 nM and 0.1 nM))	A (a value of 3 or above)
C=CC(=O)N1CC(CSc2cc(-c3ccc(O)cc3)nc3[nH]ncc23)C1 [Compound 13-9]	E (a pKi value of 7 or below (Ki of 100 nM or above))	E (a pKi value of 7 or below (Ki of 100 nM or above))	B (a pIC50 value between 6.7 (included) and 7.5 (IC50 between 200 nM and 32 nM))	E (a pKi value of 7 or below (Ki of 100 nM or above))	B (a pKi value between 9 and 10 (Ki between 1 nM and 0.1 nM))	A (a value of 3 or above)
C=CC(=O)N1CC[C@@H](Oc2nc(-c3ccc(O)cc3)nc3[nH]ncc23)C[C@H]1C [Compound 13-10]	E (a pKi value of 7 or below (Ki of 100 nM or above))	E (a pKi value of 7 or below (Ki of 100 nM or above))	B (a pIC50 value between 6.7 (included) and 7.5 (IC50 between 200 nM and 32 nM))	E (a pKi value of 7 or below (Ki of 100 nM or above))	B (a pKi value between 9 and 10 (Ki between 1 nM and 0.1 nM))	A (a value of 3 or above)
C=CC(=O)N1CCC(Oc2cc(-c3ccc(O)cc3)nc3[nH]ncc23)CC1C (stereo not drawn) [Compound 13-11]	E (a pKi value of 7 or below (Ki of 100 nM or above))	E (a pKi value of 7 or below (Ki of 100 nM or above))	A (a pIC50 value≥7.5 (IC50≤32 nM))	E (a pKi value of 7 or below (Ki of 100 nM or above))	A (a pKi value≥10 (Ki≤0.1 nM))	A (a value of 3 or above)
C=CC(=O)N1CCC(Oc2cc(-c3ccc(O)cc3)nc3[nH]ncc23)CC1C (stereo not drawn) [Compound 13-12]	E (a pKi value of 7 or below (Ki of 100 nM or above))	E (a pKi value of 7 or below (Ki of 100 nM or above))	B (a pIC50 value between 6.7 (included) and 7.5 (IC50 between 200 nM and 32 nM))	E (a pKi value of 7 or below (Ki of 100 nM or above))	B (a pKi value between 9 and 10 (Ki between 1 nM and 0.1 nM))	A (a value of 3 or above)
